Data: patent publication US20120316199A1, “COMPOSITIONS AND METHODS FOR TREATING, CONTROLLING, REDUCING, OR AMELIORATING INFLAMMATORY PAIN” (priority 2011, published 2012)

Experiments:
[1] = test system: leukocytes (PMN) in aqueous humor; assay: Leukocytes (PMN) measurement in aqueous humor, rabbit paracentesis model; assay type: in vivo, Rabbit (New Zealand); details: second paracentesis, group mean
Method: Each rabbit was placed in a restraint device and tagged with the alphanumeric code. The formulations were instilled (50 μl) into the conjunctival sac of both eyes 180, 120, 90 and 30 min before the first paracentesis; then 15, 30, 90 min after the first paracentesis. To perform the first paracentesis the animals were anaesthetized by intravenous injection of 5 mg/kg Zoletil® (Virbac; 2.5 mg/kg tiletamine HCl and 2.5 mg/kg zolazepam HCl) and one drop of local anesthetic (Novesina®, Novartis) was administered to the eye. Anterior chamber paracentesis was performed with a 26 G needle attached to a tuberculin syringe; the needle was introduced into the anterior chamber through the cornea, taking care not to damage the tissues. Two hours after the first paracentesis, the animals were sacrificed with 0.4 ml Tanax® (Intervet International B.V.) and the second paracentesis was performed. About 100 μl of aqueous humor were removed at the second paracentesis. Aqueous humor was immediately split in four aliquots and stored at −80° C. until analysis. Then both eyes were enucleated and the iris-ciliary body was carefully excised, placed in polypropylene tubes, and stored at −80° C. until analysis.
For the determination of the number of leukocytes we used a haernocytometer (Improved Neubauer Chamber; Bright-line, Hausser Scientific) and a Polyvar 2 microscope (Reichert-Jung).
Pupillary diameter, PGE2, protein, PMN, and MPO were expressed as mean±SEM. Statistical analysis was performed using one way ANOVA followed by a Newman-Keuls post hoc test. Clinical score was expressed as % of eyes and the statistical analysis was performed using Kruskal-Wallis followed by a Dunn post hoc test. P<0.05 was considered statistically significant in both cases. Prism 4 software (GraphPad Software, Inc.) was used for the analysis and graphs.

visual acuity = assay: Clinical study after cataract surgery: Snellen visual acuity (safety); assay type: in vivo, human; details: overall
Text: (§1) There were 8 treatment groups in this study, consisting of three drug doses, vehicle and three dosing frequencies (see also Table 4-1): • Group A: 1% BOL-303242-X ophthalmic suspension, two times per day (BID) • Group B: 2% BOL-303242-X ophthalmic suspension, one time per day (QD) • Group C: 2% BOL-303242-X ophthalmic suspension, BID • Group D: 2% BOL-303242-X ophthalmic suspension, four times per day (QID) • Group E: 3% BOL-303242-X ophthalmic suspension, QD • Group F: 3% BOL-303242-X ophthalmic suspension, BID • Group G: 3% BOL-303242-X ophthalmic suspension, QID • Group H: Vehicle for BOL-303242-X (divided equally into QID, BID, and QD)
(§2) Visit 1 (screening), Visit 2 (cataract surgery), Visit 3 (postoperative Day 1), Visit 4 (postoperative Day 3±1 day), Visit 5 (postoperative Day 8±1 day), Visit 6 (postoperative Day 15±1 day), Visit 7 (postoperative Day 18±1 day). Subject assessments included adverse events (AEs), concomitant medications, ocular symptoms, pinholed Snellen visual acuity (VA), intraocular pressure (IOP), ocular signs (biomicroscopy), fundoscopy, and study drug drop sensation. In addition, subject diaries were collected and reviewed for accuracy and treatment compliance.
(§3) Safety: The safety endpoints in this study were: incidence of AEs, change in IOP, ocular signs (biomicroscopy), Snellen VA, fundoscopy, study drug drop sensation assessment.

ocular signs = assay: Clinical study after cataract surgery: ocular signs (biomicroscopy); assay type: in vivo, human
Text: as §1, §2, §3

SMILES: Cc1ccc2c(NC[C@](O)(CC(C)(C)c3cc(F)cc4c3OCC4)C(F)(F)F)cccc2n1 [BOL-303242-X, mapracorat]
- PMN numbers in aqueous humor, Mean ([1]; 0.1% formulation): 28.333 number/μl
- PMN numbers in aqueous humor, Mean ([1]; 0.5% formulation): 21.250 number/μl
- PMN numbers in aqueous humor, Mean ([1]; 1% formulation): 28.750 number/μl
- subjects whose VA did not decline by two lines or more (visual acuity): more than 92%
- proportions of subjects with increases in scores for anterior vitreous haze, corneal edema, corneal staining, eyelid erythema, hyphema, and posterior synechiae (ocular signs; any dose groups at any postoperative visits): No statistically significant differences
- proportions of subjects with increases in scores for AC cells, AC flare, bulbar conjunctival injection, chemosis, ciliary flush, palpebral conjunctival injection (ocular signs; certain dose groups at Visits 4, 5, 7 as listed): statistically significantly lower proportions of subjects with increases in scores
